{"source": "patent US8637683B2", "about": "“Macrocyclic lactone derivatives for the treatment of cancer” (Piramal Enterprises Limited, priority 2009, dated 2014)", "type_in_all_cases": "cell-based, human", "key": {"H 460": {"system": "H 460", "assay": "Monolayer assay (modified propidium iodide), H 460", "details": "H 460, Lung, 4 days of treatment", "excerpt": "(§1) Oncotest GmbH, Germany's proprietary tumor cell line panel comprises 40 cell lines. These cell lines were derived from 15 different tumor histotypes, each represented by 1 to 6 different cell lines. Cell lines were established from cancer of the bladder (3), colon (4), head and neck (1), lung (6), breast (3), pancreas (3), prostate (4), ovary (2), kidney (3), liver (1), stomach (1) and the uteri body (1), as well as from melanoma (3), sarcoma (2) and pleuramesothelioma (3). Out of these 40 cell lines, 24 cell lines were established at Oncotest, from patient-derived tumor xenografts. […]\n(§2) Stock solutions of the test compounds (330 μg/mL in DMSO) were prepared and stored in small aliquots (200 μL) at −20° C. […] Each concentration was evaluated in triplicate. […]\n(§3) Cells were plated in 96-well flat-bottom microtiter plates at a cell density of 4,000 to 10,000 cells/well. […] To measure the viable cell number, the remaining adherent cells were killed and permeabilized by repeated freezing and thawing and PI fluorescence was measured using the Cytofluor 4000 microplate reader (excitation λ=530 nm, emission λ=620 nm), which was a measure for the number of cells which survived treatment. […] IC-values were calculated based on the principle of linear two-point curve fit. […]"}, "RKO": {"system": "RKO", "assay": "Monolayer assay (modified propidium iodide), RKO", "details": "Colon, 4 days of treatment", "excerpt": "as §1, §2, §3"}, "TE671": {"system": "TE671", "assay": "Monolayer assay (modified propidium iodide), TE671", "details": "TE671, Sarcoma, 4 days of treatment", "excerpt": "as §1, §2, §3"}, "LXF 1121L": {"system": "LXF 1121L", "assay": "Monolayer assay (modified propidium iodide), LXF 1121L", "details": "Lung, 4 days of treatment", "excerpt": "as §1, §2, §3"}, "BXF 1218L": {"system": "BXF 1218L", "assay": "Monolayer assay (modified propidium iodide), BXF 1218L", "details": "Bladder, 4 days of treatment", "excerpt": "as §1, §2, §3"}, "GXF 251 L": {"system": "GXF 251 L", "assay": "Monolayer assay (modified propidium iodide), GXF 251 L", "details": "Gastric, 4 days of treatment", "excerpt": "as §1, §2, §3"}, "LXF 289L": {"system": "LXF 289L", "assay": "Monolayer assay (modified propidium iodide), LXF 289L", "details": "Lung, 4 days of treatment", "excerpt": "as §1, §2, §3"}, "BXF 1352L": {"system": "BXF 1352L", "assay": "Monolayer assay (modified propidium iodide), BXF 1352L", "details": "Bladder, 4 days of treatment", "excerpt": "as §1, §2, §3"}, "RXF 1781L": {"system": "RXF 1781L", "assay": "Monolayer assay (modified propidium iodide), RXF 1781L", "details": "Renal, 4 days of treatment", "excerpt": "as §1, §2, §3"}, "MCF 7": {"system": "MCF 7", "assay": "Monolayer assay (modified propidium iodide), MCF 7", "details": "MCF 7, Mammary, 4 days of treatment", "excerpt": "as §1, §2, §3"}, "OVXF 899L": {"system": "OVXF 899L", "assay": "Monolayer assay (modified propidium iodide), OVXF 899L", "details": "Ovarian, 4 days of treatment", "excerpt": "as §1, §2, §3"}, "LXF 529L": {"system": "LXF 529L", "assay": "Monolayer assay (modified propidium iodide), LXF 529L", "details": "Lung, 4 days of treatment", "excerpt": "as §1, §2, §3"}, "RXF 486L": {"system": "RXF 486L", "assay": "Monolayer assay (modified propidium iodide), RXF 486L", "details": "Renal, 4 days of treatment", "excerpt": "as §1, §2, §3"}, "PXF 1752L": {"system": "PXF 1752L", "assay": "Monolayer assay (modified propidium iodide), PXF 1752L", "details": "Pleuramesothelioma, 4 days of treatment", "excerpt": "as §1, §2, §3"}, "LXF 526L": {"system": "LXF 526L", "assay": "Monolayer assay (modified propidium iodide), LXF 526L", "details": "Lung, 4 days of treatment", "excerpt": "(§4) Oncotest GmbH, Germany's proprietary tumor cell line panel comprises 40 cell lines. These cell lines were derived from 15 different tumor histotypes, each represented by 1 to 6 different cell lines. Cell lines were established from cancer of the bladder (3), colon (4), head and neck (1), lung (6), breast (3), pancreas (3), prostate (4), ovary (2), kidney (3), liver (1), stomach (1) and the uteri body (1), as well as from melanoma (3), sarcoma (2) and pleuramesothelioma (3). Out of these 40 cell lines, 24 cell lines were established at Oncotest, from patient-derived tumor xenografts. The other 16 cell lines were either provided by the NCI (Bethesda; MD, USA) or were purchased from ATCC (Rockville, Md., USA) or DSMZ (Braunschweig, Germany).\n(§5) Cell lines were routinely passaged once or twice weekly and maintained in culture for upto 20 passages. All cells were grown at 37° C. in a humidified atmosphere with 5% CO2 in RPMI 1640 medium supplemented with 10% (v/v) fetal calf serum (FCS) and 0.1 mg/mL gentamicin (medium and all other components from PAA, Cölbe, Germany). […]\nas §2\nas §3, with “treatment. Pharmacological effects on cell proliferation and survival were expressed as Test/Control×100 (% T/C) values, with T and C representing the fluorescence read-outs for wells with and without test compound, respectively, i.e. T/C represents the ratio of viable cell numbers following incubation of cell line with/without test compound.” for “treatment.”"}, "T 24": {"system": "T 24", "assay": "Monolayer assay (modified propidium iodide), T 24", "details": "T 24, Bladder, 4 days of treatment", "excerpt": "as §4, §5, §2\nas §3, with “treatment. Pharmacological effects on cell proliferation and survival were expressed as Test/Control×100 (% T/C) values, with T and C representing the fluorescence read-outs for wells with and without test compound, respectively, i.e. T/C represents the ratio of viable cell numbers following incubation of cell line with/without test compound.” for “treatment.”"}, "PAXF 546L": {"system": "PAXF 546L", "assay": "Monolayer assay (modified propidium iodide), PAXF 546L", "details": "Pancreas, 4 days of treatment", "excerpt": "as §1, §2, §3"}, "PXF 698L": {"system": "PXF 698L", "assay": "Monolayer assay (modified propidium iodide), PXF 698L", "details": "Pleuramesothelioma, 4 days of treatment", "excerpt": "as §1, §2, §3"}, "PANC 1": {"system": "PANC 1", "assay": "Monolayer assay (modified propidium iodide), PANC 1", "details": "PANC 1, Pancreas, 4 days of treatment", "excerpt": "as §1, §2, §3"}}}
{"compound": "C/C=C/C(O)C(C)/C=C/C(=N\\O)C(C)C(O)C(C)C1OC(=O)/C(OC)=C/C(C)=C/C(C)C(O)C(CC)C(O)C(C)C/C(C)=C/C=C/C1OC", "note": "(centres unmarked) [Example 7, (3Z,5E,13E,15E)-18-((5Z,6E,10E)-3,9-Dihydroxy-5-(hydroxymino)-4,8-dimethyldodeca-6,10-dien-2-yl)-9-ethyl-8,10-dihydroxy-3,17-dimethoxy-5,7,11,13-tetramethyl oxacyclooctadeca-3,5,13,15-tetraen-2-one]", "values": [{"measurement": "IC70", "setting": "H 460", "result": 2.0, "unit": "ng/mL"}, {"measurement": "IC50", "setting": "H 460; Homo sapiens, NCI-H460, 96 h", "result": 0.7, "unit": "ng/mL"}, {"measurement": "IC70", "setting": "RKO", "result": 0.6, "unit": "ng/mL"}, {"measurement": "IC50", "setting": "RKO; Homo sapiens, 96 h", "result": 0.2, "unit": "ng/mL"}, {"measurement": "IC50", "setting": "TE671; Homo sapiens, TE-671, 96 h", "result": 2, "unit": "ng/mL"}, {"measurement": "IC70", "setting": "TE671", "result": 5.0, "unit": "ng/mL"}, {"measurement": "IC50", "setting": "LXF 1121L; Homo sapiens, 96 h", "result": 1, "unit": "ng/mL"}, {"measurement": "IC70", "setting": "LXF 1121L", "result": 5.0, "unit": "ng/mL"}, {"measurement": "IC70", "setting": "BXF 1218L", "result": 46.0, "unit": "ng/mL"}, {"measurement": "IC50", "setting": "BXF 1218L; Homo sapiens, 96 h", "result": 4, "unit": "ng/mL"}, {"measurement": "IC70", "setting": "GXF 251 L", "result": 6.0, "unit": "ng/mL"}, {"measurement": "IC50", "setting": "GXF 251 L; Homo sapiens, 96 h", "result": 1, "unit": "ng/mL"}, {"measurement": "IC50", "setting": "LXF 289L; Homo sapiens, 96 h", "result": 6, "unit": "ng/mL"}, {"measurement": "IC70", "setting": "LXF 289L", "result": 68.0, "unit": "ng/mL"}, {"measurement": "IC70", "setting": "BXF 1352L", "result": 2.0, "unit": "ng/mL"}, {"measurement": "IC50", "setting": "BXF 1352L; Homo sapiens, 96 h", "result": 0.2, "unit": "ng/mL"}, {"measurement": "IC50", "setting": "RXF 1781L; Homo sapiens, 96 h", "result": 7, "unit": "ng/mL"}, {"measurement": "IC70", "setting": "RXF 1781L", "result": 28.0, "unit": "ng/mL"}, {"measurement": "IC50", "setting": "MCF 7; Homo sapiens, MCF7, 96 h", "result": 1, "unit": "ng/mL"}, {"measurement": "IC70", "setting": "MCF 7", "result": 4.0, "unit": "ng/mL"}, {"measurement": "IC50", "setting": "OVXF 899L; Homo sapiens, 96 h", "result": 8, "unit": "ng/mL"}, {"measurement": "IC70", "setting": "OVXF 899L", "result": 31.0, "unit": "ng/mL"}, {"measurement": "IC50", "setting": "LXF 529L; Homo sapiens, 96 h", "result": 1, "unit": "ng/mL"}, {"measurement": "IC70", "setting": "LXF 529L", "result": 7.0, "unit": "ng/mL"}, {"measurement": "IC50", "setting": "RXF 486L; Homo sapiens, 96 h", "result": 0.016, "unit": "µg/mL"}, {"measurement": "IC70", "setting": "RXF 486L", "result": 39.0, "unit": "ng/mL"}, {"measurement": "IC50", "setting": "PXF 1752L; Homo sapiens, 96 h", "result": 3, "unit": "ng/mL"}, {"measurement": "IC70", "setting": "PXF 1752L", "result": 22.0, "unit": "ng/mL"}, {"measurement": "IC50", "setting": "LXF 526L; Homo sapiens, 96 h", "result": "< 0.1", "unit": "ng/mL"}, {"measurement": "IC70", "setting": "LXF 526L", "result": 0.1, "unit": "ng/mL"}, {"measurement": "IC50", "setting": "T 24; Homo sapiens, 96 h", "result": "< 0.1", "unit": "ng/mL"}, {"measurement": "IC70", "setting": "T 24", "result": 0.3, "unit": "ng/mL"}, {"measurement": "IC50", "setting": "PAXF 546L; Homo sapiens, 96 h", "result": 0.5, "unit": "ng/mL"}, {"measurement": "IC70", "setting": "PAXF 546L", "result": ">1000", "unit": "ng/mL"}, {"measurement": "IC50", "setting": "PXF 698L; Homo sapiens, 96 h", "result": 0.4, "unit": "ng/mL"}, {"measurement": "IC70", "setting": "PXF 698L", "result": 2.0, "unit": "ng/mL"}, {"measurement": "IC50", "setting": "PANC 1; Homo sapiens, 96 h", "result": 0.6, "unit": "ng/mL"}, {"measurement": "IC70", "setting": "PANC 1", "result": 17.0, "unit": "ng/mL"}]}
